What was measured:
HepG2 cells = experiment: Quantification of the secretion of ApoB; type: cell-based; conditions: Homo sapiens, HepG2, 24 h, 24 hours of incubation, pIC50 = -log IC50
Summary of the method: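 At 70% confluency, HepG2 cells received compound (0.4% DMSO final) for 24 h. Secreted apoB in cleared medium was immunoprecipitated with sheep anti-apoB then rabbit anti-sheep antibody (24 h each at 8° C.), and pellet radioactivity was counted by scintillation. IC50 values were expressed as pIC50.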

MTP = MTP (Homo sapiens, UniProt P55157); experiment: MTP assay (triglyceride transfer from donor to acceptor vesicles); type: biochemical; conditions: MTP activity, percent triglyceride transfer from donor to acceptor vesicles, 37° C.
Chain of MTP (P55157 19-894, species assumed): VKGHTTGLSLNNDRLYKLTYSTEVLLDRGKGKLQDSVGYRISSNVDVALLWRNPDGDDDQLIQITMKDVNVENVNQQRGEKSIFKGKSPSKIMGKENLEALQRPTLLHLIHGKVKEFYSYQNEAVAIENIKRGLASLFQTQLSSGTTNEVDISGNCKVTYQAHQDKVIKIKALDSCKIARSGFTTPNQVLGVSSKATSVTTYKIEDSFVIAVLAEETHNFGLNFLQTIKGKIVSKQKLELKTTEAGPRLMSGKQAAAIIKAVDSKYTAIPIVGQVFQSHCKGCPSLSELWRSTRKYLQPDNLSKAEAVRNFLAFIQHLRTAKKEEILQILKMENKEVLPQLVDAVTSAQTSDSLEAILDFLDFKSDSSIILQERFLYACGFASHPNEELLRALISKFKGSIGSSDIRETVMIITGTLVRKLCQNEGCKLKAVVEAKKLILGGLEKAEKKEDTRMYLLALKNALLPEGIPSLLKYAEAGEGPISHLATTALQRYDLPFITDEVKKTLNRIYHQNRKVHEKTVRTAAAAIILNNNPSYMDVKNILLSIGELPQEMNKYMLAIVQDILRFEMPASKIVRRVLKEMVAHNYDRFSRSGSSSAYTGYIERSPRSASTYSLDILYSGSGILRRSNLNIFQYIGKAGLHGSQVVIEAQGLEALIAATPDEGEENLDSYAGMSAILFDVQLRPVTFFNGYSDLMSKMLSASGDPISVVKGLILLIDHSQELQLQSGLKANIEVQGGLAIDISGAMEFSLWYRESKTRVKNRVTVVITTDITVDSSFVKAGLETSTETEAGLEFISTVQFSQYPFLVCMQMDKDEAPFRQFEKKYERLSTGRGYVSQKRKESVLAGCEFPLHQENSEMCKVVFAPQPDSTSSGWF
Chain of MTP (P07237 18-508 partner, species assumed): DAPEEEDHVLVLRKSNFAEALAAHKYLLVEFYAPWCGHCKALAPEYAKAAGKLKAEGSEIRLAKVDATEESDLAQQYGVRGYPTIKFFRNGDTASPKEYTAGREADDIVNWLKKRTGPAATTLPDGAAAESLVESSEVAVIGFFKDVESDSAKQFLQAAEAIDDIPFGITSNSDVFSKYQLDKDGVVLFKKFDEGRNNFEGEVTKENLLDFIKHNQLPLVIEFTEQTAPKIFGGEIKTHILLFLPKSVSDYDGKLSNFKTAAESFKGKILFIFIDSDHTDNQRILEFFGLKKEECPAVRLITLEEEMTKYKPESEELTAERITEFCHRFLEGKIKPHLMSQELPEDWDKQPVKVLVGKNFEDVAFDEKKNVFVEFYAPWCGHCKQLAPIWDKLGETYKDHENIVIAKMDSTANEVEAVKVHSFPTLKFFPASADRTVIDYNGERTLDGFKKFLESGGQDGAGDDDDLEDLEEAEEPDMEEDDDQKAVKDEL
Summary of the method: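 Radiolabelled triglyceride transfer from donor vesicles (phosphatidylcholine, 7.5 mol % cardiolipin, 0.25 mol % glycerol tri[1-^14C]-oleate) to phosphatidylcholine acceptor vesicles with BSA, pH 7.5 Tris buffer; compounds in DMSO (0.13% final), 5 min preincubation at 37° C before MTP addition. Donor vesicles removed on DEAE-52; acceptor-supernatant ^14C counts give percent transfer.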

SMILES	melting point [°C]	IC50 (HepG2 cells) [nM]	IC50 (MTP) [nM]
C=CCOC(=O)[C@]1(c2ccccc2)CC[C@@H](C(=O)N2CCC(NC(=O)c3ccccc3)CC2)c2ccccc21 [Co. No. 13]	103 to 107	28.8	6.05
CCOC(=O)[C@]1(c2ccccc2)CC[C@@H](C(=O)N2CCC(NC(=O)c3ccccc3)CC2)c2ccccc21 (racemic) [Co. No. 25]	112 to 115	15	3.85
COc1ccccc1C(=O)NC1CCN(C(=O)[C@H]2CC[C@@](C(=O)NCCCCCC(=O)OC(C)(C)C)(c3ccccc3)c3ccccc32)CC1 [Co. No. 209]	–	> 1000	36.2
CCOC(=O)[C@@H](CCCCNC(=O)OC(C)C)NC(=O)[C@@]1(c2ccccc2)CC[C@H](C(=O)N2CCC(NC(=O)c3ccccc3OC)CC2)c2ccccc21 [Co. No. 220]	–	21.1	1.86
CCOC(=O)[C@]1(c2ccccc2)CC[C@@H](C(=O)N2CCN(C(=O)c3ccccc3OC)CC2)c2ccccc21 [Co. No. 27]	–	778	65.2
COc1ccccc1C(=O)NC1CCN(C(=O)[C@H]2CC[C@@](C(=O)NCC(=O)OC(C)(C)C)(c3ccccc3)c3ccccc32)CC1 [Co. No. 62]	–	42.1	0.713
COC(=O)CCCCNC(=O)[C@@]1(c2ccccc2)CC[C@H](C(=O)N2CCC(NC(=O)c3ccccc3OC)CC2)c2ccccc21 [Co. No. 204]	–	> 1000	58.7
CCOC(=O)[C@H](NC(=O)[C@@]1(c2ccccc2)CC[C@H](C(=O)N2CCC(NC(=O)c3ccccc3OC)CC2)c2ccccc21)c1ccccc1 [Co. No. 79]	–	128	33.3
CCOC(=O)[C@@]1(c2ccccc2)CC[C@H](C(=O)N2CCC(NC(=O)c3cccnc3OC(C)C)CC2)c2ccccc21 [Co. No. 274]	–	17.3	4.69
COC(=O)[C@]1(c2ccccc2)CC[C@@H](C(=O)N2CCC(NC(=O)c3cc(OC)nnc3OC)CC2)c2ccccc21 [Co. No. 59]	–	225	> 100
COC(=O)[C@H](CCCCNC(=O)[C@@]1(c2ccccc2)CC[C@H](C(=O)N2CCC(NC(=O)c3ccccc3OC)CC2)c2ccccc21)NC(C)=O [Co. No. 214]	–	> 1000	26.8
COC(=O)[C@H](CCCCNC(=O)OC(C)(C)C)NC(=O)[C@@]1(c2ccccc2)CC[C@H](C(=O)N2CCC(NC(=O)c3cccn(C)c3=O)CC2)c2ccccc21 [Co. No. 148]	–	> 1000	131
COc1ccccc1C(=O)NC1CCN(C(=O)[C@H]2CC[C@](C(N)=O)(c3ccccc3)c3ccccc32)CC1 [Co. No. 40]	–	70.6	> 10000
CCOC(=O)[C@@H](CCCCNC(=O)OC(C)(C)C)NC(=O)[C@@]1(c2ccccc2)CC[C@H](C(=O)N2CCC(NC(=O)c3ccccc3OC)CC2)c2ccccc21 [Co. No. 216]	–	31.1	6.7
CCCOC(=O)CCCCCNC(=O)[C@@]1(c2ccccc2)CC[C@H](C(=O)N2CCC(NC(=O)c3ccccc3OC)CC2)c2ccccc21 [Co. No. 246]	–	234	3.87
CC(C)OC(=O)NCCCC[C@H](NC(=O)[C@@]1(c2ccccc2)CC[C@H](C(=O)N2CCC(NC(=O)c3cccn(C)c3=O)CC2)c2ccccc21)C(=O)OC(C)C [Co. No. 235]	–	> 1000	109
COc1ccccc1C(=O)NC1CCN(C(=O)[C@H]2CC[C@@](C(=O)N[C@@H](CCC(=O)OC(C)C)C(=O)OC(C)C)(c3ccccc3)c3ccccc32)CC1 [Co. No. 248]	–	184	6.61
COc1ccccc1C(=O)NC1CCN(C(=O)[C@H]2CC[C@@](C(=O)N[C@H](Cc3ccccc3)C(=O)OC(C)(C)C)(c3ccccc3)c3ccccc32)CC1 [Co. No. 96]	–	512	38.2
CCNC(=O)[C@]1(c2ccccc2)CC[C@@H](C(=O)N2CCC(NC(=O)c3ccccc3-c3ccc(C(F)(F)F)cc3)CC2)c2ccccc21 [Co. No. 10]	–	1.85	1.96

SMILES	melting point [°C]	IC50 (HepG2 cells) [nM]	IC50 (MTP) [nM]
CCOC(=O)[C@@H](C)NC(=O)[C@@]1(c2ccccc2)CC[C@H](C(=O)N2CCC(NC(=O)c3ccccc3OC)CC2)c2ccccc21 [Co. No. 67]	–	873	20.2
CCOC(=O)CCNC(=O)[C@@]1(c2ccccc2)CC[C@H](C(=O)N2CCC(NC(=O)c3ccccc3OC)CC2)c2ccccc21 [Co. No. 129]	–	4.36	1.77
CCOC(=O)[C@H](Cc1ccccc1)NC(=O)[C@@]1(c2ccccc2)CC[C@H](C(=O)N2CCC(NC(=O)c3ccccc3OC)CC2)c2ccccc21 [Co. No. 81]	–	> 1000	12.6
CCOC(=O)[C@]1(c2ccccc2)CC[C@@H](C(=O)N2CCC(NC(=O)c3ccccc3OC)CC2)c2ccccc21 (racemic) [Co. No. 26]	–	6.37	1.92
CCCOC(=O)CCCNC(=O)[C@@]1(c2ccccc2)CC[C@H](C(=O)N2CCC(NC(=O)c3ccccc3OC)CC2)c2ccccc21 [Co. No. 249]	–	586	2.64
COc1ccccc1C(=O)NC1CCN(C(=O)[C@H]2CC[C@@](C(=O)N[C@@H](CCC(N)=O)C(=O)OC(C)(C)C)(c3ccccc3)c3ccccc32)CC1 [Co. No. 107]	–	> 1000	> 100
COc1ncccc1C(=O)NC1CCN(C(=O)[C@@H]2CC[C@](C(=O)NCCC(=O)OC(C)C)(c3ccccc3)c3ccccc32)CC1 [Co. No. 261]	–	> 1000	757
Cn1cccc(C(=O)NC2CCN(C(=O)[C@H]3CC[C@@](C(=O)NCCC(=O)OC(C)(C)C)(c4ccccc4)c4ccccc43)CC2)c1=O [Co. No. 164]	–	> 1000	65.2
CCCOC(=O)CC[C@H](NC(=O)[C@@]1(c2ccccc2)CC[C@H](C(=O)N2CCC(NC(=O)c3ccccc3OC)CC2)c2ccccc21)C(=O)OCCC [Co. No. 247]	–	382	5.96
COC(=O)CCCNC(=O)[C@@]1(c2ccccc2)CC[C@H](C(=O)N2CCC(NC(=O)c3ccccc3OC)CC2)c2ccccc21 [Co. No. 201]	–	> 1000	7.76
COC(=O)[C@]1(c2ccccc2)CC[C@@H](C(=O)N2CCC(NC(=O)c3cc(O)ccc3OC)CC2)c2ccccc21 [Co. No. 61]	–	286	> 10000
CCNC(=O)[C@]1(c2ccccc2)CC[C@@H](C(=O)N2CC[C@@H](NC(=O)c3cc(Cl)c(N)cc3OC)[C@@H](OC)C2)c2ccccc21 [Co. No. 23]	–	232	60.3
COc1ccccc1C(=O)NC1CCN(C(=O)[C@H]2CC[C@@](C(=O)NCCCC(=O)OC(C)C)(c3ccccc3)c3ccccc32)CC1 [Co. No. 250]	–	343	1.79
COc1ccccc1C(=O)NC1CCN(C(=O)[C@H]2CC[C@@](C(=O)N[C@H](CCCCNC(=O)OC(C)C)C(=O)OC(C)C)(c3ccccc3)c3ccccc32)CC1 [Co. No. 221]	–	135	1.78
CCNC(=O)[C@]1(c2ccccc2)CC[C@@H](CN2CCC(NC(=O)c3ccccc3-c3ccc(C(F)(F)F)cc3)CC2)c2ccccc21 [Co. No. 16]	–	15	3.2
CCOC(=O)C[C@H](NC(=O)[C@@]1(c2ccccc2)CC[C@H](C(=O)N2CCC(NC(=O)c3ccccc3OC)CC2)c2ccccc21)C(=O)OC [Co. No. 73]	–	> 1000	> 100
COc1ccccc1C(=O)NC1CCN(C(=O)[C@H]2CC[C@@](C(=O)N[C@@H](CC(=O)O)C(=O)O)(c3ccccc3)c3ccccc32)CC1 [Co. No. 121]	–	> 1000	> 10000
COC(=O)CCNC(=O)[C@@]1(c2ccccc2)CC[C@H](C(=O)N2CCC(NC(=O)c3ccccc3OC)CC2)c2ccccc21 [Co. No. 65]	–	7.98	2.86
C=CCOC(=O)[C@@]1(c2ccccc2)CC[C@H](C(=O)N2CCC(NC(=O)c3cccnc3OC)CC2)c2ccccc21 [Co. No. 266]	–	2.04	0.966
